According to article PMC12254266, “Multicolored sequential resonance energy transfer for detection of simultaneous ligand binding at G protein-coupled receptors” (Nature Communications, 2025):
Several values for one entry are separate records, joined by “and”; a condition that tells them apart may be missing. Equal entries are not always repeated. Where two headings read alike, the source gives them in different places.

What was measured:
[1] = target: T1, FFA1 (Homo sapiens, UniProt O14842); assay: NanoBiT arrestin-3 recruitment in HEK293T cells; assay type: cell-based; set-up: expressed in transfected cells; host or cells: HEK293T, transient; conditions: ± SEM
T1 sequence (O14842 whole entry, the tested form may be a part): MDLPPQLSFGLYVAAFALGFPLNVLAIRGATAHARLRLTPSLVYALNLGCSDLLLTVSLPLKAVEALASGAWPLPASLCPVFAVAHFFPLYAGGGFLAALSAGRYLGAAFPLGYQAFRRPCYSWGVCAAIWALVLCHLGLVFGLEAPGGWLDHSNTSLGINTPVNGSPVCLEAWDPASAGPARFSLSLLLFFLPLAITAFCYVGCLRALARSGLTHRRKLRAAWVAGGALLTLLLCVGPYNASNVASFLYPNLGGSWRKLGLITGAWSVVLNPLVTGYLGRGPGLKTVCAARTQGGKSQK
Method: For arrestin-3 recruitment assays, HEK293T cells were transfected with FFA1 receptor and a bystander NanoBiT split luciferase arrestin-3 recruitment biosensor. Cells were transfected and plated simultaneously in a reverse transfection protocol into a poly-D-lysine coated white 96-well plate. Per well, 60,000 cells were transfected with 5 ng plasmid expressing LgBiT with a N-terminal Lyn11 plasma membrane localisation tag, 5 ng plasmid expressing bovine arrestin-3 fused at its N-terminal to SmBiT tag and 30 ng plasmid expressing the human FFA1 receptor. Total DNA was made up to 100 ng total/well with empty pcDNA3 vector and transfected to cell suspension with 0.6 µg/well PEI. Following transfection cells were cultured for 24 h before use. On the day of assay, cells were washed twice with HBSS and incubated in HBSS for 30 min at 37 °C. NanoGlo substrate was added at a final 1:800 dilution and incubated in the dark for 10 min at 37 °C. […] Raw luminescence values were divided by baseline signal (average of first 5 data points prior to compound addition) and vehicle measurements subtracted from agonist treatment. Area under curves were calculated and concentration response curves plotted.

[2] = target: T2, Nluc-FFA1 (Homo sapiens, UniProt O14842); assay: NanoBRET binding (saturation, competition, kinetics) at N terminal Nluc tagged FFA1
T2 construct: expressed in transfected cells
T2 sequence (O14842 whole entry): as the sequence (O14842 whole entry, the tested form may be a part) above

[3] = target: T1, FFA1; assay: Ca2+ mobilisation (Fura2) in Flp-In T-REx 293 cells expressing Nluc-FFA1, FFA1-Nluc or untagged FFA1; assay type: cell-based; set-up: expressed in transfected cells
Method in brief: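 520 nm emission read at 340 and 380 nm excitation over 90 s spanning compound addition. Response taken as peak 340/380 ratio after subtracting pre-addition ratios.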

[4] = target: FFA1-Nluc (Homo sapiens, UniProt O14842); assay: Bystander BRET internalisation assay, FFA1-Nluc in HEK293T cells; assay type: cell-based; set-up: expressed in transfected cells; host or cells: HEK293T (ATCC, CRL-3216), transient; conditions: in words; up to 60 min
Sequence of FFA1-Nluc (O14842 whole entry): as the sequence (O14842 whole entry, the tested form may be a part) above
Method: Cells were transfected using a reverse transfection protocol while plating into a poly-D-lysine coated white 96-well plates. Cells were plated at 60,000 cells with 100 ng of plasmid DNA and 0.6 µg of polyethyleneimine (PEI) per well. Cells were cultured for 24 h before washing with HBSS and incubating in HBSS at 37 °C for 30 min. NanoGlo substrate was added a final 1:800 dilution and plates incubated for 10 min at 37 °C. […] After 5 min of baseline measurements, readings were paused and test compounds added to the plate.

[5] = Nluc-FFA1, multiple concentration of labelled ligand association model

Structure (SMILES): COc1ccc(C(=O)N(CC(C)(C)CNc2ccc([N+](=O)[O-])c3nonc23)c2cccc(C)n2)c(N2CCC(COc3cccc(C(CC(=O)O)C4CC4)c3)CC2)c1.O=C(O)C(F)(F)F (centres unmarked) [TUG-2597]
- EMax (% TUG-905) arrestin-3 recruitment ([1]; percentage of the response to 10 μM TUG-905): 60 ± 6%
- pEC50 arrestin-3 recruitment ([1]; N=3): 8.5 ± 0.3
- Specific BRET ([2]; Nluc-FFA1 (Fig 1F), percentage of the maximal signal, [TUG-2597] 550 nM): 73.921% and 62.249% and 55.324% and 54.737% and 83.741% and 100.190%
- Kd ([2]; Nluc-FFA1, 95% confidence interval in parentheses, read-out: Kd, saturation BRET binding): 390 nM
- Specific BRET (540/450) Ratio ([2]; Nluc-FFA1, [TUG-2597] 100 nM): 0.0112 and 0.0100 and 0.0162 and 0.0091 and 0.0128 and 0.0161
- Specific BRET (540/450) Ratio ([2]; Nluc-FFA1, [TUG-2597] 550 nM): 0.0530 and 0.0471 and 0.0466
- Specific BRET (540/450) Ratio ([2]; Nluc-FFA1, [TUG-2597] 1000 nM): 0.0547 and 0.0609 and 0.0560 and 0.0683 and 0.0664 and 0.0577
- kOn Nano-BRET ([2]; Nluc-FFA1, association then dissociation model): 58333.33 M⁻¹ s⁻¹
- kOff Nano-BRET ([2]; Nluc-FFA1, association then dissociation model, TUG-2591 100 nM then TUG-905 10 μM, or TUG-2597 […] then T360 10 μM): 0.00633 s⁻¹
- Kd ([2]; Nluc-FFA1, association then dissociation model, read-out: Kd Nano-BRET (kinetic)): 110 nM
- kOff Nano-BRET Multiple Concentration [2, 5]: 0.0065 s⁻¹
- kOn Nano-BRET Multiple Concentration [2, 5]: 12000 M⁻¹ s⁻¹
- Kd ([2]; Nluc-FFA1, read-out: Kd Nano-BRET Multiple Concentration (kinetic)): 540 nM
- kOff Nano-BRET Allosterism, Nluc-FFA1 ([2]; TUG-2591 (1 μM) in the presence of T360 (30μM), TUG-2597 (1 μM) in the presence of TUG-905 (30μM), 95% CI in parentheses): 0.20 (0.195-0.203) min-1
- Kd ([2]; footnotes of Supplementary Table 3, read-out: Kd values obtained in NanoBRET saturation experiments (used for pKi) (converted)): 380 nM
- Kd ([2]; using either Nluc location (N or C terminal), read-out: Kd, saturation NanoBRET): 350 to 440 nM
- pEC50 ([3]; Ca2+ data, mean±SEM, NR = No response): 7.27±0.15
- Ca2+ Response as a % of T360 Response ([3]; FFA1-Nluc cells, log[ligand] -6, technical replicates): 99.449% and 102.959% and 94.044% and 86.097% and 89.862% and 94.557% and 93.903% and 112.372% and 96.085%
- Ca2+ Response as a % of T360 Response ([3]; FFA1-Nluc cells, log[ligand] -6.5, technical replicates): 93.856%
- Ca2+ Response as a % of T360 Response ([3]; Nluc-FFA1 cells, log[ligand] -6, technical replicates): 98.502% and 90.832% and 83.286% and 100.456% and 100.532% and 98.348% and 86.132% and 101.429% and 99.802%
- Ca2+ Response as a % of T360 Response ([3]; Nluc-FFA1 cells, log[ligand] -6.5, technical replicates): 75.000% and 74.673% and 79.991% and 79.440% and 88.972% and 77.424%
- activity in Ca2+ assays ([3]; in words): full agonist activity
- Ca2+ Response as a % of T360 Response ([3]; log[Ligand] -5, single technical replicates): 94.1089% and 100.3658% and 94.0694% and 95.2773% and 93.4218% and 94.0281% and 113.6201% and 103.7535% and 91.4802%
- Ca2+ Response as a % of T360 Response ([3]; log[Ligand] -5.5, single technical replicates): 88.4228% and 88.1164% and 92.8756% and 94.9449% and 95.8176% and 102.8518% and 111.3779% and 100.7045% and 94.6978%
- Ca2+ Response as a % of T360 Response ([3]; log[Ligand] -6, single technical replicates): 102.9594% and 94.0443% and 86.0972% and 89.8623% and 94.5572% and 93.9027% and 112.3722% and 96.0847% and 99.4485%
- Ca2+ Response as a % of T360 Response ([3]; log[Ligand] -6.5, single technical replicates): 98.0209% and 82.7239% and 91.3275% and 93.3935% and 84.3453% and 87.8268% and 93.2804% and 88.9497% and 93.8558%
- Ca2+ Response as a % of T360 Response ([3]; log[Ligand] -7, single technical replicates): 78.0026% and 75.4199% and 62.2477% and 75.7232% and 79.9853% and 65.5987% and 54.9740% and 35.8972% and 43.3457%
- Ca2+ Response as a % of T360 Response ([3]; log[Ligand] -8, single technical replicates): 14.2762% and 15.7577% and 11.8329% and 8.5966% and 24.0260% and 6.3496% and -0.7745% and -0.6973% and 0.6419%
- Ca2+ Response as a % of T360 Response ([3]; log[Ligand] -9, single technical replicates): 2.8056% and 3.1175% and 1.8245% and 0.4833% and 3.2822% and 3.2529% and 0.4143% and 0.1324% and 3.0301%
- EMax ([3]; percentage of response to 10 μM T360, NR = No response): 101±4%
- Ca2+ Response as a % of T360 Response ([3]; untagged FFA1 cells, log[ligand] -6, technical replicates): 93.834% and 82.677% and 85.015% and 110.264% and 98.194% and 98.400% and 82.235% and 72.424% and 63.906% and 83.124% and 92.268% and 73.931%
- internalization of FFA1-Nluc [4]: No internalization
